In patent US5998596A, “Inhibition of protein kinase activity by aptameric action of oligonucleotides” (The United States of America as represented by the …):

Tests used:
[1] = system: p210^bcr-abl protein level in K562 cells; assay: Western analysis of p210bcr-abl protein level in ODN treated K562 cells; assay type: cell-based, human; conditions: one hour after electroporation with 100 μM ODN
Procedure: For p210^bcr-abl Western analysis, probing was carried out with the ECL Western blotting kit (Amersham) according to manufacturer's instructions. Briefly, membranes were blocked in 5% non-fat dry milk in TTBS for 1 hour, incubated with anti-p210^bcr-abl antibody (clone 8E9, Pharmingen, San Diego, Calif.) diluted 1:500 in TTBS for 1 hour, with sheep anti-mouse horseradish peroxidase-linked antibody (diluted 1:1000) for 1 hour, and lastly incubated in a luminol based detection solution for 1 minute. Membranes were exposed to Kodak X-OMAT AR film for various time periods.
Electroporation was performed as described (40). Briefly, 1-5×10^6 cells in 1 ml of RPMI 1640 with 10% fetal calf serum were placed into 0.4 cm gap electroporation chambers and electroporated with a Cell-Porator Electroporation System 1 (all from GIBCO BRL, Grand Island, N.Y.) at 800 microfarrads, 300 volts, at room temperature. Cells were then incubated at 37° C. for 1 hour before manipulation.

[2] = system: p210^bcr-abl kinase; assay: Phosphorylation of exogenous substrate enolase by p210bcr-abl; assay type: biochemical, human
Procedure: (§1) Immunoprecipitation kinase assays of p210^bcr-abl p145^abl were performed as described, with modifications (15). Briefly, for p210^bcr-abl, 1 μg of anti-bcr antibody (clone 7C6, Oncogene Science, Uniondale, N.Y.) was added to lysates prepared from 0.5-1×10^6 K562 cells. For p145^abl, 1 μg of anti-c-abl antibody (clone 24-21), which binds to the C-terminal domain of p145^abl, was added to lysates prepared from 5×10^6 PC3M cells. After incubating 1 hour at 4° C., complexes were precipitated by incubating with protein A-Sepharose coated with rabbit anti-mouse immunoglobulin (Cappel Research Products, Durham, N.C.) for 30 minutes. The complexes were then washed as follows: ABL lysis buffer×2, PBS×1, and ABL assay buffer×1 (24 mM imidazole, pH 7.2, 1 mg/ml bovine serum albumin, and 10 mM MnCl). For p145^abl assays ABL assay buffer contained 20 mM MnCl. To access the activity of p210^bcr-abl on substrate phosphorylation, acid inactivated enolase (Sigma Chemical Co., St. Louis, Mo.) was added as described (15).
ODNs were added to kinase reaction buffers not more than 5 minutes prior to the addition of ATP. […]
P210^bcr-abl from K562 cells was immunoprecipitated and kinase assays performed in the presence or absence of 1 μM BCR-AS with varying amounts of enolase present. […] Note that inhibition of autophosphorylation can be readily seen in the absence of enolase (see lanes 5 and 10).

[3] = system: p210^bcr-abl kinase in K562 cells; assay: Immunoprecipitation kinase assay of p210bcr-abl from ODN treated K562 cells; assay type: cell-based, human; conditions: K562 cells incubated 3 days with 50 μM ODN, washed
Procedure: as §1
(§2) ODNs were added to kinase reaction buffers not more than 5 minutes prior to the addition of ATP. Reactions were initiated by the addition of [γ^-32 P] ATP (3000 Ci/mmole; Amersham Corp., Arlington Heights, Ill.) and quenched by the addition of 5× gel loading buffer and heating to 95° C. Kinase reactions were run for 1-10 minutes at room temperature, except for EGFR, p145^abl, and MAP kinase, which were run at 30° C. The products were then electrophoresed on SDS-polyacrylamide gels: 7% for p210^bcr-abl, EGFR, and PDGFR, 8% for p145^abl, 10% for src, lck, and cdc-2 kinase, and 12% for MAP kinase. Gels were dried and reaction products were visualized by direct autoradiography at -70° C. with Kodak X-OMAT AR film. To determine the inhibitory concentration 50, i.e., the concentration required to inhibit enzyme activity by 50% (IC50) and Ki values, gel slices containing the band of interest were excised and analyzed by Cerenkov counting.
The effects of ODN1 on a cellular system were assessed. […] After 3 days, cells were washed and p210^bcr-abl kinase activity was measured. […] Neither cellular p210^bcr-abl protein content nor cell growth was affected by ODN treatment (data not shown).

[4] = system: lck kinase; assay: Immunoprecipitation kinase assay of lck; assay type: biochemical
Source text: (§3) The p210^bcr-abl kinase, src kinase and cdc-2 kinase were immunoprecipitated from K562 cells. The p145^abl kinase was immunoprecipitated from PC3M cells, PDGF receptor kinase from 3T3 cells, and EGF receptor kinase from A431 cells. MAP kinase was utilized as a pure protein and lck kinase was immunoprecipitated from peripheral blood lymphocytes of a normal volunteer.
(§4) Epidermal growth factor receptor (EGFR) was immunoprecipitated with 10 ,g anti-EGFR antibody (clone LA1) and human recombinant epidermal growth factor (both from Upstate Biotechnology Inc., Lake Placid, N.Y.). The assay was performed as described (17) but without removing the EGFR from the protein A-antibody solid support. Instead, epidermal growth factor, at a final concentration of 100 nM, was added to the kinase reaction mixture. Platelet derived growth factor receptor (DGFR) was immunoprecipitated with anti-human type A/type B PDGFR antibody (Upstate Biotechnology Inc.) and immune complex kinase assays performed as referenced (18) except that protein A-Sepharose coated with rabbit anti-mouse immunoglobulin was used instead of formalin-fixed Staphylococcus aureus to bind PDGFR-antibody conjugates. C-src was immunoprecipitated with anti-v-src antibody (Ab-1; Oncogene Science) and assayed as previously described (19) with the addition of enolase as exogenous substrate. […]

[5] = system: p210^bcr-abl kinase; assay: Immunoprecipitation kinase assay of p210bcr-abl (autophosphorylation), ODN added to kinase reaction; assay type: biochemical, human; conditions: for inhibition of p210^bcr-abl kinase activity in vitro (in words): ODN at 1 μM added to the immunoprecipitated enzyme
Procedure: as §3
Cells were washed in phosphate buffered saline (PBS) and 0.5-5×10^6 cells were solubilized in 1 ml of the specified cell lysis buffers. Unless otherwise stated, all cell lysis buffers contained the following protease inhibitors: 20 μg/ml leupeptin, 1 μg/ml aprotinin, and 1 mM phenylmethylsulfonylfluroide. For p210^bcr-abl and […] immunoprecipitation, cells were lysed with ABL lysis buffer (25 mM imidazole, pH 7.2, 0.5% NP40, 50 mM NaCl, 1 mM Na3 VO4) and lysates were clarified at 14,000 g. 4° C. for 30 minutes. Cell lysis for all other proteins was performed according to the references describing the various immunoprecipitation kinase assays.
as §1, §2

[6] = system: Epidermal growth factor receptor (EGFR); assay: EGFR autophosphorylation immunoprecipitation kinase assay; assay type: biochemical
Source text: as §3, §4

[7] = Cerenkov counting of excised gel slices
[8] = ODN1 concentrations greater than 2 logs above the Ki for p210^bcr-abl

## 5'-GTCCACCATGGCGCGGCCGGC-3' [ODN1] (phosphorothioate caps, further chemistry not given here) [21mer ODN complementary to nucleotides -12 to +9 of the p210bcr-abl mRNA, phosphorothioate capped unless otherwise specified]
[1]
  p210^bcr-abl protein level: no decrement
[2]; 1 μM BCR-AS, varying amounts of enolase, three minute reaction
  phosphorylation of enolase by p210^bcr-abl: no effect
[2]; ODN1 concentrations of up to 50 μM
  inhibition of enolase phosphorylation by p210^bcr-abl: no significant inhibition
[3]
  p210^bcr-abl kinase activity of ODN treated K562 cells: significantly decreased
[3]; listed as BCR-AS
  p210^bcr-abl kinase activity of ODN treated K562 cells: reduction
[4]; [7]
  IC50: > 50000 nM
[4]; [8]
  inhibition of lck (in words): not significantly inhibited
[5]; 1 μM BCR-AS, lower concentrations of enolase, three minute reaction
  p210^bcr-abl autophosphorylation in the presence of enolase: only a slight effect
[5]; 1 μM ODN1
  nature of the enzymatic inhibition with respect to ATP: purely noncompetitive
[5]; Cerenkov counting of excised gel slices, mean ± SD
  IC50: 520 ± 120 nM
[5]; ODN 1 μM, phosphorothioate capped, mean ± SE of three experiments
  Percent Remaining Activity of p210^bcr-abl kinase relative to control: 36 ± 1.2%
[5]
  inhibition of p210^bcr-abl kinase activity in vitro (in words): markedly inhibited
[5]; listed as ODN1 phosphorothioate capped
  inhibition of p210^bcr-abl kinase activity in vitro (in words): intermediate potencies
[5]; various [γ-32P]ATP concentrations, presence or absence of 1 μM ODN1, double-reciprocal plot
  Ki: 520 ± 120 nM
[6]; [7]
  IC50: > 100000 nM
[6]; [8]
  inhibition of EGF receptor (in words): not significantly inhibited
